Test results as given in patent publication US11485745B2, “Amido spirocyclic amide and sulfonamide derivatives” (Valo Health, Inc., priority 2012, dated 2022).

System: A2780 cells
Experiment: In-Vitro Cell Proliferation Assay (A2780, sulforhodamine B, 72 hours)
Format: cell-based
Details: Homo sapiens, A2780, 72 h, SRB

Compound	IC50
CC(C)C(=O)N1CCC2(CC1)CC2CNC(=O)c1cc2cnccc2[nH]1 (stereo not drawn) [Example 12]	2000 nM
CCS(=O)(=O)N1CCC2(CC1)CC2CNC(=O)c1cc2cnccc2[nH]1 (stereo not drawn) [Example 14, N-[(8-ethylsulfonyl-8-azasprio[2.5]octan-2-yl)methyl]-1H-pyrrolo[3,2-c]pyridine-2-carboxamide]	2000 nM
CCC(=O)N1CCC2(CC1)CC2CNC(=O)c1cc2cnccc2[nH]1 (stereo not drawn) [Example 20]	2000 nM
CN(C)Cc1ccc(C(=O)N2CCC3(CC2)CC3CNC(=O)c2cc3ccncc3o2)cc1 (stereo not drawn) [Example 71, N-[[6-[4-[(dimethylamino)methyl]benzoyl]-6-azaspiro[2.5]octan-2-yl]methyl]furo[2,3-c]pyridine-2-carboxamide]	13.7 nM
O=C(CCC1CCCCC1)N1CCC2(CC1)CC2CNC(=O)N1Cc2ccncc2C1 (stereo not drawn) [Example 197, N-[[6-(3-cyclohexylpropanoyl)-6-azaspiro[2.5]octan-2-yl]methyl]-1,3-dihydropyrrolo[3,4-c]pyridine-2-carboxamide]	9.61 nM
O=C(CCc1ccccc1)N1CCC2(CC1)CC2CNC(=O)N1Cc2ccncc2C1 (stereo not drawn) [Example 199, N-[[6-(3-phenylpropanoyl)-6-azaspiro[2.5]octan-2-yl]methyl]-1,3-dihydropyrrolo[3,4-c]pyridine-2-carboxamide]	184 nM
O=C(CCc1cccnc1)N1CCC2(CC1)CC2CNC(=O)N1Cc2ccncc2C1 (stereo not drawn) [Example 209, N-[[6-[3-(3-pyridyl)propanoyl]-6-azaspiro[2.5]octan-2-yl]methyl]-1,3-dihydropyrrolo[3,4-c]pyridine-2-carboxamide]	203 nM

Continued, values first:

IC50	Compound
50.9 nM	CC(C)(O)CCC(=O)N1CCC2(CC1)CC2CNC(=O)N1Cc2ccncc2C1 (stereo not drawn) [Example 360, N-[[6-(4-hydroxy-4-methyl-pentanoyl)-6-azaspiro[2.5]octan-2-yl]methyl]-1,3-dihydropyrrolo[3,4-c]pyridine-2-carboxamide]
1.59 nM	CC1(C)CC1C(=O)N1CCC2(CC1)CC2CNC(=O)N1Cc2ccncc2C1 (stereo not drawn) [Example 377, N-[[6-(2,2-dimethylcyclopropanecarbonyl)-6-azaspiro[2.5]octan-2-yl]methyl]-1,3-dihydropyrrolo[3,4-c]pyridine-2-carboxamide]
2000 nM	CC(C)(C)CS(=O)(=O)N1CCC2(CC1)CC2CNC(=O)c1cc2ccncc2[nH]1 (stereo not drawn) [Example 379, N-[[6-(2,2-dimethylpropylsulfonyl)-6-azaspiro[2.5]octan-2-yl]methyl]-1H-pyrrolo[3,2-c]pyridine-2-caarboxamide]
55.4 nM	CC(C)(C)CS(=O)(=O)N1CCC2(CC1)CC2CNC(=O)N1Cc2ccncc2C1 (stereo not drawn) [Example 381, N-[[6-(2,2-dimethylpropylsulfonyl)-6-azaspiro[2.5]octan-2-yl]methyl]-1,3-dihydropyrrolo[3,4-c]pyridine-2-carboxamide]
18.5 nM	CC(C)(O)COCC(=O)N1CCC2(CC1)CC2CNC(=O)N1Cc2ccncc2C1 (stereo not drawn) [Example 393, N-[[6-[2-(2-hydroxy-2-methyl-propoxy)acetyl]-6-azaspiro[2.5]octan-2-yl]methyl]-1,3-dihydropyrrolo[3,4-c]pyridine-2-carboxamide]
17.5 nM	O=C(NCC1CC12CCN(C(=O)c1cc(C(F)(F)F)[nH]n1)CC2)N1Cc2ccncc2C1 (stereo not drawn) [Example 396, N-[[6-[5-(trifluoromethyl)-1H-pyrazole-3-carbonyl]-6-azaspiro[2.5]octan-2-yl]methyl]-1,3-dihydropyrrolo[3,4-c]pyridine-2-carboxamdie]
2000 nM	CC(C)(O)COC(=O)N1CCC2(CC1)CC2CNC(=O)c1cc2cnccc2[nH]1 (stereo not drawn) [Example 401, (2-hydroxy-2-methyl-propyl) 2-[(1H-pyrrolo[3,2-c]pyridine-2-carbonylamino)methyl]-6-azaspiro[2.5]octane-6-carboxylate]

Same assay, conditions: SRB

Compound	IC50
CC1(C)CC1C(=O)N1CCC2(CC1)CC2CNC(=O)c1cc2ccncc2o1 (stereo not drawn) [Example 373, N-[[6-(2,2-dimethylcyclopropanecarbonyl)-6-azaspiro[2.5]octan-2-yl]methyl]furo[2,3-c]pyridine-2-carboxamide]	7.03 nM
